In patent US11260079B2, “Dosing regimens for the mobilization of hematopoietic stem and progenitor cells” (Magenta Therapeutics, Inc., priority 2017, dated 2022):

Columns and labels:
[1] = tested on: NOD scid gamma (NSG) mice; assay: Xenograft GVHD model; format: in vivo; details: for numbers of T-cells as compared to mice transplanted with Gro-β T and AMD3100-mobilized PBMCs: NSG mice, day 14 post-transplant; for mice died of aGVHD at day 24 / mice remained alive at day 60 post-transplant: sublethally irradiated NSG mice transplanted with 6×10^6 mobilized PBMCs
Experimental: To assess whether these immunosuppressive cells may prevent GVHD, we developed a xenograft GVHD model in NOD scid gamma (NSG) mice, which are immunodeficient mice. Gro-β T and AMD3100 mobilized peripheral blood (6×10^6 PBMCs) containing a high percentage of CD34^dim cells were injected into sublethally irradiated NSG mice. This was compared to unmobilized primate PBMCs (6×10^6 PBMCs) containing a relatively low numbers of CD34^dim cells and G-CSF mobilized primate PBMCs (6×10^6 PBMCs).

[2] = tested on: white blood cells, neutrophils, lymphocytes and monocytes; details: Rhesus monkeys; plerixafor 1 mg/kg subcutaneously; median value
Experimental: (§1) Male rhesus macaques were treated with AMD3100 alone or in combination with Gro-β T. Blood was collected immediately prior to and 0.5, 1, 2, 4 and 24 hours after treatment and analyzed by multicolor flow cytometry to quantitate HSPC numbers. Additional aliquots of mobilized blood were plated in methylcellulose and CFU were enumerated seven days later.
Animals were mobilized with AMD3100 alone or in combination with Gro-β T. Peripheral blood was collected at the time points shown and white blood cells enumerated on a HESKA Hematology Analyzer. Total number of white blood cells, neutrophils, lymphocytes and monocytes per μL of peripheral blood were determined. Data shown in FIGS. 2-5 are expressed as mean±SEM and represent 5 animals per group. Statistical significance was determined based on 2-way ANOVA with post-hoc Dunnett's multiple comparisons test (** p<0.01).

[3] = tested on: CD34^+ hematopoietic stem and progenitor cells; details: Rhesus monkeys; plerixafor 1 mg/kg subcutaneously; median value
Experimental: as §1
(§2) The data shown in FIGS. 7 and 8 include the percentage of whole blood accounted for by CD34^+ hematopoietic stem and progenitor cells for each treatment group. Absolute numbers and fold change in CD34^+ cells per μL of peripheral blood were quantified with a single platform quantitative method. Data shown in FIGS. 7 and 8 are expressed as mean±SEM and represent 5 animals per group. Statistical significance was determined based on 2-way ANOVA with post-hoc Dunnett's multiple comparisons test (* p<0.05, ** p<0.01, **** p<0.0001).
as §2, with “9” for “7”, “10” for “8”, “CD34^+ CD90^+ CD45RA^−” for “CD34^+”, “are shown.” for “were quantified with a single platform quantitative method.”, “p<0.05. **p<0.01, *** p<0.001,” for “p<0.05, ** p<0.01,”
Additional data summarizing the mobilization of CD34^+ cells (e.g., CD34^+ CD90^+ CD45RA^− cells) in Rhesus monkeys using various doses of Gro-beta T and AMD3100 are reported in TABLES 8-11, below. Quantities are reported in TABLES 8-11 using the following notation: “Median value (Minimum value observed−maximum value observed).”

[4] = tested on: hematopoietic stem and progenitor cell mobilization; details: cited from earlier work; for potency of hematopoietic stem and progenitor cell mobilization relative to Gro-β: described in U.S. Pat. Nos. 6,080,398 and 6,447,766
[5] = tested on: stem and progenitor cells (LT-HSC); assay: Mobilization of stem and progenitor cells in mice; format: in vivo; details: 15 minutes after a single injection
CD34^dim cells = assay: Mobilization of CD34^dim cells, flow cytometry; format: in vivo; details: Rhesus macaques; 4 hours after the last dose of G-CSF; n=3
Experimental: Cells were mobilized according to the method of Example 1. A sample of peripheral blood was tested using a flow cytometer for the markers CD34, CD11b, CD14, CD16, CD45, and SSC.
Rhesus macaques were treated with Gro-β T, […], Gro-β T and AMD3100, or G-CSF alone. A sample of peripheral blood was tested using a flow cytometry.

c1cc(CN2CCCNCCNCCCNCC2)ccc1CN1CCCNCCNCCCNCC1 [plerixafor, 1,1′-[1,4-phenylenebis(methylene)]-bis-1,4,8,11-tetra-azacyclotetradecane]
numbers of T-cells as compared to mice transplanted with Gro-β T and AMD3100-mobilized PBMCs [1]: approximately 60 fold | mice died of aGVHD at day 24 [1]: 5/16 | mice remained alive at day 60 post-transplant [1]: 10/16 | Fold increase vs. baseline following sc administration of AMD3100: Lymphocytes [2]: 2.5 fold | Fold increase vs. baseline following sc administration of AMD3100: Monocytes [2]: 7.9 fold | Fold increase vs. baseline following sc administration of AMD3100: Neutrophils [2]: 5.0 fold | Fold increase vs. baseline following sc administration of AMD3100: WBCs [2]: 2.3 fold | Quantity of cells observed 4 hours following sc administration of AMD3100: Lymphocytes [2]: 1.35E+07 | Quantity of cells observed 4 hours following sc administration of AMD3100: Monocytes [2]: 3.10E+06 | Quantity of cells observed 4 hours following sc administration of AMD3100: Neutrophils [2]: 2.10E+07 | Quantity of cells observed 4 hours following sc administration of AMD3100: WBCs [2]: 3.90E+07 | Fold increase vs. baseline following sc administration of AMD3100: CD34^+ [3]: 9.1 fold | Fold increase vs. baseline following sc administration of AMD3100: CD34^+ CD90^+ CD54RA^− [3]: 14.9 fold | Quantity of cells observed 4 hours following sc administration of AMD3100: CD34^+ [3]: 41054 | Quantity of cells observed 4 hours following sc administration of AMD3100: CD34^+ CD90^+ CD54RA^− [3]: 14820 | Ratio of fold increase of CD34^+ CD90^+ CD45RA^− cells to other cell populations: CD34^+ [3]: 1.4 | Ratio of fold increase of CD34^+ CD90^+ CD45RA^− cells to other cell populations: Lymphocytes [3]: 5.7 | Ratio of fold increase of CD34^+ CD90^+ CD45RA^− cells to other cell populations: Monocytes [3]: 1.6 | Ratio of fold increase of CD34^+ CD90^+ CD45RA^− cells to other cell populations: Neutrophils [3]: 3.0 | Ratio of fold increase of CD34^+ CD90^+ CD45RA^− cells to other cell populations: WBCs [3]: 3.7 | Ratio of fold increase of CD34^+ cells to other cell populations: CD34^+ CD90^+ CD54RA^− [3]: 0.7 | Ratio of fold increase of CD34^+ cells to other cell populations: Lymphocytes [3]: 4.0 | Ratio of fold increase of CD34^+ cells to other cell populations: Monocytes [3]: 1.2 | Ratio of fold increase of CD34^+ cells to other cell populations: Neutrophils [3]: 2.1 | Ratio of fold increase of CD34^+ cells to other cell populations: WBCs [3]: 2.3 | Ratio of quantity of CD34^+ CD90^+ CD45RA^− cells to other cell populations: CD34^+ [3]: 0.352 | Ratio of quantity of CD34^+ CD90^+ CD45RA^− cells to other cell populations: Lymphocytes [3]: 0.0011 | Ratio of quantity of CD34^+ CD90^+ CD45RA^− cells to other cell populations: Monocytes [3]: 0.0039 | Ratio of quantity of CD34^+ CD90^+ CD45RA^− cells to other cell populations: Neutrophils [3]: 0.0006 | Ratio of quantity of CD34^+ CD90^+ CD45RA^− cells to other cell populations: WBCs [3]: 0.0003 | Ratio of quantity of CD34^+ cells to other cell populations: CD34^+ CD90^+ CD54RA^− [3]: 2.838 | Ratio of quantity of CD34^+ cells to other cell populations: Lymphocytes [3]: 0.0025 | Ratio of quantity of CD34^+ cells to other cell populations: Monocytes [3]: 0.0111 | Ratio of quantity of CD34^+ cells to other cell populations: Neutrophils [3]: 0.0015 | Ratio of quantity of CD34^+ cells to other cell populations: WBCs [3]: 0.0009

Gro-β N69D: variant of Gro-β with aspartic acid in place of asparagine at position 69 (SEQ ID NO: 3)
potency of hematopoietic stem and progenitor cell mobilization relative to Gro-β [4]: superior potency

Gro-β T N65D: variant of Gro-β T with aspartic acid in place of asparagine at position 65 (SEQ ID NO: 4)
potency of hematopoietic stem and progenitor cell mobilization relative to Gro-β T ([4]; described in U.S. Pat. No. 6,447,766): substantially greater than that of Gro-β T

Gro-β T: CXCR2 agonist; Gro-β with deletion of the first four amino acids from the N-terminus (SEQ ID NO: 2)
potency of hematopoietic stem and progenitor cell mobilization relative to Gro-β [4]: superior to that of Gro-β by multiple orders of magnitude | mobilization of stem and progenitor cells [5]: rapid mobilization

B1: G-CSF: Filgrastim (G-CSF), most common clinical hematopoietic stem cell mobilization protocol (protein, chains of the INN, looked up)
chain: MTPLGPASSLPQSFLLKCLEQVRKIQGDGAALQEKLCATYKLCHPEELVLLGHSLGIPWAPLSSCPSQALQLAGCLSQLHSGLFLYQGLLQALEGISPELGPTLDTLQLDVADFATTIWQQMEELGMAPALQPTQGAMPAFASAFQRRAGGVLVASHLQSFLEVSYRVLRHLAQP
numbers of T-cells as compared to mice transplanted with Gro-β T and AMD3100-mobilized PBMCs [1]: approximately 10 fold | mice died of aGVHD at day 24 [1]: 3/16 | mice remained alive at day 60 post-transplant [1]: 11/16 | increase over baseline in the number of CD34^dim cells (CD34^dim cells): about a nine-fold increase
